Data taken from patent US10004701B2, “Methods and compositions for treating infection” (UNIVERSITY OF ROCHESTER, priority 2012, dated 2018).
Counter-ions that a name gives are not always drawn. Like-named read-outs stand apart in the source and are kept apart here.

Experiments:
Assay in all cases: AK assay 384-well format, Prestwick library screening
E. coli = type: cell-based, Escherichia coli; settings: for fold induction at 50 µM: Escherichia coli, 3 h
E. cloacae = type: cell-based, Enterobacter cloacae; settings: for fold induction at 50 µM: Enterobacter cloacae, 3 h
[1] = system: S. aureus strain USA300-0114; type: cell-based, Staphylococcus aureus; settings: for fold induction at 50 µM: Staphylococcus aureus, USA300, 3 h
K. pneumoniae = type: cell-based, Klebsiella pneumoniae; settings: for fold induction at 50 µM: Klebsiella pneumoniae, 3 h
[2] = system: A. baumannii strain 98-37-09; type: cell-based, Acinetobacter baumannii; settings: for fold induction at 50 µM: Acinetobacter baumannii, 983709, 3 h
E. faecium = type: cell-based, Enterococcus faecium; settings: for fold induction at 50 µM: Enterococcus faecium, 3 h
P. aeruginosa = type: cell-based, Pseudomonas aeruginosa; settings: for fold induction at 50 µM: Pseudomonas aeruginosa, 3 h
[3] = 50 μM final drug concentration, planktonic, […]
[4] = 50 μM final drug concentration, cutoff for positive-scoring molecules 3-fold increase, read-out: AK-based Prestwick Library Screening Results, E. coli (fold increase in extracellular AK activity)
[5] = 50 μM final drug concentration, cutoff for positive-scoring molecules 3-fold increase, read-out: AK-based Prestwick Library Screening Results, E. cloacae (fold increase in extracellular AK activity)
[6] = 50 μM final drug concentration, cutoff for positive-scoring molecules 3-fold increase, read-out: AK-based Prestwick Library Screening Results, S. aureus (fold increase in extracellular AK activity)
[7] = 50 μM final drug concentration, cutoff for positive-scoring molecules 3-fold increase, read-out: AK-based Prestwick Library Screening Results, K. pneumoniae (fold increase in extracellular AK activity)
[8] = 50 μM final drug concentration, cutoff for positive-scoring molecules 3-fold increase, read-out: AK-based Prestwick Library Screening Results, A. baumannii (fold increase in extracellular AK activity)
[9] = 50 μM final drug concentration, cutoff for positive-scoring molecules 3-fold increase, read-out: AK-based Prestwick Library Screening Results, E. faecium (fold increase in extracellular AK activity)
[10] = 50 μM final drug concentration, cutoff for positive-scoring molecules 3-fold increase, read-out: AK-based Prestwick Library Screening Results, P. aeruginosa (fold increase in extracellular AK activity)
[11] = 50 μM final drug concentration, planktonic, cutoff for positive 3-fold increase

## CC[C@H]1OC(=O)[C@H](C)[C@@H](O[C@H]2C[C@@](C)(OC)[C@@H](O)[C@H](C)O2)[C@H](C)[C@@H](O[C@@H]2O[C@H](C)C[C@H](N(C)C)[C@H]2O)[C@](C)(O)C[C@@H](C)[C@@H]2N[C@@H](COCCOC)O[C@H]([C@H]2C)[C@]1(C)O [Dirithromycin]
E. coli; 50 μM final drug concentration, planktonic, cutoff for positive 3-fold increase, read-out: AK-based Prestwick Library Screening Results, E. coli (fold increase in extracellular AK activity)
  fold induction at 50 µM: 1.1
E. cloacae; 50 μM final drug concentration, planktonic, cutoff for positive 3-fold increase, read-out: AK-based Prestwick Library Screening Results, E. cloacae (fold increase in extracellular AK activity)
  fold induction at 50 µM: 1.5
[1]; 50 μM final drug concentration, planktonic, cutoff for positive 3-fold increase, read-out: AK-based Prestwick Library Screening Results, S. aureus (fold increase in extracellular AK activity)
  fold induction at 50 µM: 2.1
K. pneumoniae; 50 μM final drug concentration, planktonic, cutoff for positive 3-fold increase, read-out: AK-based Prestwick Library Screening Results, K. pneumoniae (fold increase in extracellular AK activity)
  fold induction at 50 µM: 1.2
[2]; 50 μM final drug concentration, planktonic, cutoff for positive 3-fold increase, read-out: AK-based Prestwick Library Screening Results, A. baumannii (fold increase in extracellular AK activity)
  fold induction at 50 µM: 1.8
E. faecium; 50 μM final drug concentration, planktonic, cutoff for positive 3-fold increase, read-out: AK-based Prestwick Library Screening Results, E. faecium (fold increase in extracellular AK activity)
  fold induction at 50 µM: 1.2
P. aeruginosa; 50 μM final drug concentration, planktonic, cutoff for positive 3-fold increase, read-out: AK-based Prestwick Library Screening Results, P. aeruginosa (fold increase in extracellular AK activity)
  fold induction at 50 µM: 0.9

## CN(C)CCC=C1c2ccccc2CCc2ccccc21.Cl [Amitryptiline hydrochloride]
E. coli; planktonic E. coli, 50 μM final drug concentration, 384-well, […]
  AK-based Prestwick Library Screening Results: E. coli (increase in extracellular AK activity): 1.2
E. cloacae; planktonic E. cloacae, 50 μM final drug concentration, 384-well, […]
  AK-based Prestwick Library Screening Results: E. cloacae (increase in extracellular AK activity): 1.8
[1]; planktonic S. aureus, 50 μM final drug concentration, 384-well, […]
  AK-based Prestwick Library Screening Results: S. aureus (increase in extracellular AK activity): 1.4
K. pneumoniae; planktonic K. pneumoniae, 50 μM final drug concentration, 384-well, […]
  AK-based Prestwick Library Screening Results: K. pneumoniae (increase in extracellular AK activity): 1.1
[2]; planktonic A. baumannii, 50 μM final drug concentration, 384-well, […]
  AK-based Prestwick Library Screening Results: A. baumannii (increase in extracellular AK activity): 1.3
E. faecium; planktonic E. faecium, 50 μM final drug concentration, 384-well, […]
  AK-based Prestwick Library Screening Results: E. faecium (increase in extracellular AK activity): 1.0
P. aeruginosa; planktonic P. aeruginosa, 50 μM final drug concentration, 384-well, […]
  AK-based Prestwick Library Screening Results: P. aeruginosa (increase in extracellular AK activity): 1.0

## CC(=O)[C@H]1CC[C@H]2[C@@H]3CC=C4C[C@@H](O)CC[C@]4(C)[C@H]3CC[C@]12C [Pregnenolone]
E. coli; [3]
  AK-based Prestwick Library Screening Results, E. coli (fold increase in extracellular AK activity): 1.4
E. cloacae; [3]
  AK-based Prestwick Library Screening Results, E. cloacae (fold increase in extracellular AK activity): 1.5
[1]; [3]
  AK-based Prestwick Library Screening Results, S. aureus (fold increase in extracellular AK activity): 1.1
K. pneumoniae; [3]
  AK-based Prestwick Library Screening Results, K. pneumoniae (fold increase in extracellular AK activity): 1.1
[2]; [3]
  AK-based Prestwick Library Screening Results, A. baumannii (fold increase in extracellular AK activity): 1.3
E. faecium; [3]
  AK-based Prestwick Library Screening Results, E. faecium (fold increase in extracellular AK activity): 1.1
P. aeruginosa; [3]
  AK-based Prestwick Library Screening Results, P. aeruginosa (fold increase in extracellular AK activity): 1.1

## Cc1cc2cc3c(C)cc(=O)oc3c(C)c2o1 [Trioxsalen]
E. coli; [4]
  fold induction at 50 µM: 1.2
E. cloacae; [5]
  fold induction at 50 µM: 1.3
[1]; [6]
  fold induction at 50 µM: 0.9
K. pneumoniae; [7]
  fold induction at 50 µM: 1
[2]; [8]
  fold induction at 50 µM: 1.2
E. faecium; [9]
  fold induction at 50 µM: 0.9
P. aeruginosa; [10]
  fold induction at 50 µM: 1

## Cc1c(Cl)cccc1Nc1ncccc1C(=O)O.NCCCC[C@H](N)C(=O)O [Clonixin Lysinate]
E. coli
  AK-based Prestwick library screening result, E. coli (fold increase in extracellular AK activity): 1.0
E. cloacae
  AK-based Prestwick library screening result, E. cloacae (fold increase in extracellular AK activity): 1.5
[1]
  AK-based Prestwick library screening result, S. aureus (fold increase in extracellular AK activity): 1.2
K. pneumoniae
  AK-based Prestwick library screening result, K. pneumoniae (fold increase in extracellular AK activity): 1.1
[2]
  AK-based Prestwick library screening result, A. baumannii (fold increase in extracellular AK activity): 1.4
E. faecium
  AK-based Prestwick library screening result, E. faecium (fold increase in extracellular AK activity): 0.9
P. aeruginosa
  AK-based Prestwick library screening result, P. aeruginosa (fold increase in extracellular AK activity): 1.0

## CN1CCN2c3ccccc3Cc3ccccc3C2C1 (stereo not shown) [Mianserine hydrochloride]
E. coli; 50 μM final drug concentration, 384-well format, cutoff for positive-scoring molecules 3-fold increase, read-out: AK-based Prestwick Library Screening Results, E. coli (increase in extracellular AK activity)
  fold induction at 50 µM: 0.7
E. cloacae; 50 μM final drug concentration, 384-well format, cutoff for positive-scoring molecules 3-fold increase, read-out: AK-based Prestwick Library Screening Results, E. cloacae (increase in extracellular AK activity)
  fold induction at 50 µM: 0.7
[1]; 50 μM final drug concentration, 384-well format, cutoff for positive-scoring molecules 3-fold increase, read-out: AK-based Prestwick Library Screening Results, S. aureus (increase in extracellular AK activity)
  fold induction at 50 µM: 0.7
K. pneumoniae; 50 μM final drug concentration, 384-well format, cutoff for positive-scoring molecules 3-fold increase, read-out: AK-based Prestwick Library Screening Results, K. pneumoniae (increase in extracellular AK activity)
  fold induction at 50 µM: 0.6
[2]; 50 μM final drug concentration, 384-well format, cutoff for positive-scoring molecules 3-fold increase, read-out: AK-based Prestwick Library Screening Results, A. baumannii (increase in extracellular AK activity)
  fold induction at 50 µM: 0.8
E. faecium; 50 μM final drug concentration, 384-well format, cutoff for positive-scoring molecules 3-fold increase, read-out: AK-based Prestwick Library Screening Results, E. faecium (increase in extracellular AK activity)
  fold induction at 50 µM: 0.9
P. aeruginosa; 50 μM final drug concentration, 384-well format, cutoff for positive-scoring molecules 3-fold increase, read-out: AK-based Prestwick Library Screening Results, P. aeruginosa (increase in extracellular AK activity)
  fold induction at 50 µM: 0.8

## NC[C@H]1O[C@H](O[C@H]2[C@H](O[C@@H]3O[C@H](CO)[C@@H](O)[C@H]3O)[C@@H](O)[C@H](N)C[C@@H]2N)[C@H](N)[C@@H](O)[C@@H]1O [Ribostamycin sulfate salt]
E. coli; 50 μM final drug concentration, planktonic, cutoff for positive-scoring molecules 3-fold increase, read-out: AK-based Prestwick Library Screening Results, E. coli (fold increase in extracellular AK activity)
  fold induction at 50 µM: 0.9
E. cloacae; 50 μM final drug concentration, planktonic, cutoff for positive-scoring molecules 3-fold increase, read-out: AK-based Prestwick Library Screening Results, E. cloacae (fold increase in extracellular AK activity)
  fold induction at 50 µM: 1.2
[1]; 50 μM final drug concentration, planktonic, cutoff for positive-scoring molecules 3-fold increase, read-out: AK-based Prestwick Library Screening Results, S. aureus (fold increase in extracellular AK activity)
  fold induction at 50 µM: 0.8
K. pneumoniae; 50 μM final drug concentration, planktonic, cutoff for positive-scoring molecules 3-fold increase, read-out: AK-based Prestwick Library Screening Results, K. pneumoniae (fold increase in extracellular AK activity)
  fold induction at 50 µM: 0.7
[2]; 50 μM final drug concentration, planktonic, cutoff for positive-scoring molecules 3-fold increase, read-out: AK-based Prestwick Library Screening Results, A. baumannii (fold increase in extracellular AK activity)
  fold induction at 50 µM: 0.8
E. faecium; 50 μM final drug concentration, planktonic, cutoff for positive-scoring molecules 3-fold increase, read-out: AK-based Prestwick Library Screening Results, E. faecium (fold increase in extracellular AK activity)
  fold induction at 50 µM: 0.9
P. aeruginosa; 50 μM final drug concentration, planktonic, cutoff for positive-scoring molecules 3-fold increase, read-out: AK-based Prestwick Library Screening Results, P. aeruginosa (fold increase in extracellular AK activity)
  fold induction at 50 µM: 0.8

## NC[C@@H]1O[C@H](O[C@H]2[C@@H](O)[C@H](O[C@@H]3[C@@H](O)[C@H](N)C[C@H](N)[C@H]3O[C@H]3O[C@H](CO)[C@@H](O)[C@H](O)[C@H]3N)O[C@@H]2CO)[C@H](N)[C@@H](O)[C@@H]1O [Paromomycin sulfate]
E. coli; [4]
  fold induction at 50 µM: 1.4
E. cloacae; [5]
  fold induction at 50 µM: 1.4
[1]; [6]
  fold induction at 50 µM: 1.3
K. pneumoniae; [7]
  fold induction at 50 µM: 1
[2]; [8]
  fold induction at 50 µM: 1.5
E. faecium; [9]
  fold induction at 50 µM: 0.9
P. aeruginosa; [10]
  fold induction at 50 µM: 1

## NC[C@H]1O[C@H](O[C@H]2[C@H](O)[C@@H](O[C@H]3O[C@H](CO)[C@@H](O)[C@H](N)[C@H]3O)[C@H](N)C[C@@H]2N)[C@H](O)[C@@H](O)[C@@H]1O.O=S(=O)(O)O [Kanamycin A sulfate]
E. coli; [11]
  AK-based Prestwick Library Screening Results, E. coli (fold increase in extracellular AK activity): 1.2
E. cloacae; [11]
  AK-based Prestwick Library Screening Results, E. cloacae (fold increase in extracellular AK activity): 1.9
[1]; [11]
  AK-based Prestwick Library Screening Results, S. aureus (fold increase in extracellular AK activity): 2.5
K. pneumoniae; [11]
  AK-based Prestwick Library Screening Results, K. pneumoniae (fold increase in extracellular AK activity): 1.0
[2]; [11]
  AK-based Prestwick Library Screening Results, A. baumannii (fold increase in extracellular AK activity): 1.1
E. faecium; [11]
  AK-based Prestwick Library Screening Results, E. faecium (fold increase in extracellular AK activity): 0.9
P. aeruginosa; [11]
  AK-based Prestwick Library Screening Results, P. aeruginosa (fold increase in extracellular AK activity): 1.0

## COc1ccc(C[C@H]2NC[C@H](O)[C@H]2OC(C)=O)cc1 [Anisomycin]
E. coli; planktonic E. coli, 50 μM final drug concentration, […]
  AK-based Prestwick Library Screening Results, E. coli (increase in extracellular AK activity): 0.7
E. cloacae; planktonic E. cloacae, 50 μM final drug concentration, […]
  AK-based Prestwick Library Screening Results, E. cloacae (increase in extracellular AK activity): 0.7
[1]; planktonic S. aureus, 50 μM final drug concentration, […]
  AK-based Prestwick Library Screening Results, S. aureus (increase in extracellular AK activity): 0.7
K. pneumoniae; planktonic K. pneumoniae, 50 μM final drug concentration, […]
  AK-based Prestwick Library Screening Results, K. pneumoniae (increase in extracellular AK activity): 0.5
[2]; planktonic A. baumannii, 50 μM final drug concentration, […]
  AK-based Prestwick Library Screening Results, A. baumannii (increase in extracellular AK activity): 0.7
E. faecium; planktonic E. faecium, 50 μM final drug concentration, […]
  AK-based Prestwick Library Screening Results, E. faecium (increase in extracellular AK activity): 1.0
P. aeruginosa; planktonic P. aeruginosa, 50 μM final drug concentration, […]
  AK-based Prestwick Library Screening Results, P. aeruginosa (increase in extracellular AK activity): 0.7
